This passage reports K Tm and Topoisomerase-I activity results from ChEMBL document CHEMBL1133328, “Heterocyclic bibenzimidazole derivatives as topoisomerase I inhibitors” (Bioorg Med Chem Lett, 2000).

The subject of assay [1] is Nucleic Acid. Description: Compound-poly(dA).poly(dT) association constant at the melting temperature (73.4 degree C) DNA complex was determined. It counts as nucleic-acid assay.
Assay [2] has as its target T1, DNA topoisomerase 1 (Homo sapiens) (UniProt P11387).
T1 sequence (whole entry): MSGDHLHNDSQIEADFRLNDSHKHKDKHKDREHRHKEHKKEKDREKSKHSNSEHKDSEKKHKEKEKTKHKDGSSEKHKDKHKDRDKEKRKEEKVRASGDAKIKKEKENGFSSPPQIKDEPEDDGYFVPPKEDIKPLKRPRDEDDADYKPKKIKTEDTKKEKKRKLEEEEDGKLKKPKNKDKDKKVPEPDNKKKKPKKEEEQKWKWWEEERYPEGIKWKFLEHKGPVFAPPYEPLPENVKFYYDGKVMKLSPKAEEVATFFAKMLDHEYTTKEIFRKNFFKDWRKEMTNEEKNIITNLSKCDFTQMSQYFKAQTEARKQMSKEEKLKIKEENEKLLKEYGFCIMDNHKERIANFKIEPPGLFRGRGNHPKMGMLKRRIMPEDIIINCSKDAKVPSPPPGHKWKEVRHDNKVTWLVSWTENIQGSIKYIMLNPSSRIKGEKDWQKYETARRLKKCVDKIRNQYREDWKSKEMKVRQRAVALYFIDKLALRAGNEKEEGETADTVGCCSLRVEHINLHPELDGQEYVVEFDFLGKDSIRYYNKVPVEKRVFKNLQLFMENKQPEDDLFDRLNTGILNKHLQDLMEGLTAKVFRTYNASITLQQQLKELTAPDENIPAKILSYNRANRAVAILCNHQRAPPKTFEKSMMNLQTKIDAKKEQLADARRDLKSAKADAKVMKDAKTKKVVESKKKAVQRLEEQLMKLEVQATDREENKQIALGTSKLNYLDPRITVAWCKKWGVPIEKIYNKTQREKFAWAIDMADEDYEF
Description: Relative effective concentration that produces the same degree of cleavage on the plasmid DNA in the presence of human topoisomerase-1.

The subject of assay [3] is Nucleic Acid. Description: Compound-poly(dA).poly(dT) association constant at the melting temperature (81.5 degree C) DNA complex was determined. The assay is classed as nucleic-acid assay.
The test system of assay [4] is Nucleic Acid. As to the kind of experiment: Compound-poly(dA).poly(dT) association constant at the melting temperature (80 degree C) of the compound-DNA complex was determined. The assay is classed as nucleic-acid assay.

In turn, `c1ccc(-c2ccc3[nH]c(-c4ccc5[nH]c(-c6ccc7[nH]ccc7c6)nc5c4)nc3c2)cc1` showed a K Tm with Nucleic Acid [1] of 3.5e+07 M⁻¹. The Topoisomerase-I activity in assay [2] is 50. With `c1ccc(-c2ccc3[nH]c(-c4ccc5[nH]c(-c6ccc7[nH]cnc7c6)nc5c4)nc3c2)cc1`, the K Tm in the assay with Nucleic Acid [3] was 2.8e+08 M⁻¹. In assay [2], the Topoisomerase-I activity stood at 1. On to `c1ccc(-c2ccc3[nH]c(-c4ccc5[nH]c(-c6ccc7[nH]nnc7c6)nc5c4)nc3c2)cc1`, for which, in assay [2], the Topoisomerase-I activity stood at 1.

In the assay on Nucleic Acid [4], `c1ccc(-c2ccc3[nH]c(-c4ccc5[nH]c(-c6ccc7cc[nH]c7c6)nc5c4)nc3c2)cc1` gave a K Tm of 1.9e+08 M⁻¹. In assay [2], the Topoisomerase-I activity came to 5. Take `c1ccc(-c2ccc3[nH]c(-c4ccc5[nH]c(-c6ccc7nccnc7c6)nc5c4)nc3c2)cc1`: the Topoisomerase-I activity in assay [2] was over 100. For the compound `Oc1nc2ccc(-c3nc4cc(-c5nc6cc(-c7ccccc7)ccc6[nH]5)ccc4[nH]3)cc2nc1O`, the Topoisomerase-I activity in assay [2] came to 1.
